Test results as given in the supplement of paper PMC10307832.

Legend:
Assay in all cases: relative viability (nuclei count vs DMSO), 5 days (fraction); higher = more cells survive
PC-3 [JPC-3] = tested on: PC-3 [JPC-3]
Outline: (§1)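 Five library-drug doses in √10 steps were combined with a fixed anchor-drug dose, or a single drug was given alone, by pin tool to lung cancer cell lines in 1536-well plates the day after seeding. Nuclei were stained and counted after 5 days. Relative viability is the nuclei count in treated wells over that in vehicle wells, taken as the median of duplicate plates.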

SW 900 = tested on: SW 900
Outline: as §1

H3255 = tested on: H3255
Outline: as §1

NCI-H1666 = tested on: NCI-H1666
Outline: as §1

LK-2 = tested on: LK-2
Outline: as §1

NCI-H23 = tested on: NCI-H23
Outline: as §1

SK-MES-1 = tested on: SK-MES-1
Outline: as §1

HCC-366 = tested on: HCC-366
Outline: as §1

NCI-H596 = tested on: NCI-H596
Outline: as §1

COR-L 105 = tested on: COR-L 105
Outline: as §1

NCI-H1755 = tested on: NCI-H1755
Outline: as §1

`CCN(CC)CCCCNc1ncc2cc(-c3cc(OC)cc(OC)c3)c(NC(=O)NC(C)(C)C)nc2n1` + O=C(c1cc(Cc2n[nH]c(=O)c3ccccc23)ccc1F)N1CCN(C(=O)C2CC2)CC1 [Olaparib] (partner 8 µM) gave a relative viability (PC-3 [JPC-3]; first compound 0.03162 µM) of 1.08, a relative viability (PC-3 [JPC-3]; first compound 0.1 µM) of 1.29 and a relative viability (PC-3 [JPC-3]; first compound 0.3162 µM) of 1.19. It also gave a relative viability (PC-3 [JPC-3]; first compound 1 µM) of 1.07, a relative viability (SW 900; first compound 0.01 µM) of 0.834 and a relative viability (SW 900; first compound 0.03162 µM) of 0.901. For the same compound, the relative viability (SW 900; first compound 0.1 µM) was 0.839, the relative viability (SW 900; first compound 0.3162 µM) was 0.793 and the relative viability (SW 900; first compound 1 µM) was 0.592. For the same compound, the relative viability (H3255; first compound 0.01 µM) was 0.567, the relative viability (H3255; first compound 0.03162 µM) was 0.52 and the relative viability (H3255; first compound 0.1 µM) was 0.581. For the same compound, the relative viability (H3255; first compound 0.3162 µM) was 0.575, the relative viability (H3255; first compound 1 µM) was 0.558 and the relative viability (NCI-H1666; first compound 0.01 µM) was 0.812. It also gave a relative viability (NCI-H1666; first compound 0.03162 µM) of 0.708, a relative viability (NCI-H1666; first compound 0.1 µM) of 0.686 and a relative viability (NCI-H1666; first compound 0.3162 µM) of 0.748. For the same compound, the relative viability (NCI-H1666; first compound 1 µM) was 0.719, the relative viability (LK-2; first compound 0.01 µM) was 0.634 and the relative viability (LK-2; first compound 0.03162 µM) was 0.547. It also gave a relative viability (LK-2; first compound 0.1 µM) of 0.714, a relative viability (LK-2; first compound 0.3162 µM) of 0.457 and a relative viability (LK-2; first compound 1 µM) of 0.226. For the same compound, the relative viability (NCI-H23; first compound 0.01 µM) was 0.306, the relative viability (NCI-H23; first compound 0.03162 µM) was 0.226 and the relative viability (NCI-H23; first compound 0.1 µM) was 0.375. The relative viability (NCI-H23; first compound 0.3162 µM) was 0.362, the relative viability (NCI-H23; first compound 1 µM) was 0.332 and the relative viability (SK-MES-1; first compound 0.01 µM) was 0.913. It also gave a relative viability (SK-MES-1; first compound 0.03162 µM) of 0.752, a relative viability (SK-MES-1; first compound 0.1 µM) of 0.863 and a relative viability (SK-MES-1; first compound 0.3162 µM) of 0.735. For the same compound, the relative viability (SK-MES-1; first compound 1 µM) was 0.727, the relative viability (HCC-366; first compound 0.01 µM) was 0.323 and the relative viability (HCC-366; first compound 0.03162 µM) was 0.374. The relative viability (HCC-366; first compound 0.1 µM) was 0.362, the relative viability (HCC-366; first compound 0.3162 µM) was 0.405 and the relative viability (HCC-366; first compound 1 µM) was 0.346. The relative viability (NCI-H596; first compound 0.01 µM) was 0.649, the relative viability (NCI-H596; first compound 0.03162 µM) was 0.727 and the relative viability (NCI-H596; first compound 0.1 µM) was 0.635. For the same compound, the relative viability (NCI-H596; first compound 0.3162 µM) was 0.723, the relative viability (NCI-H596; first compound 1 µM) was 0.563 and the relative viability (COR-L 105; first compound 0.01 µM) was 0.805. It also gave a relative viability (COR-L 105; first compound 0.03162 µM) of 0.62, a relative viability (COR-L 105; first compound 0.1 µM) of 0.73 and a relative viability (COR-L 105; first compound 0.3162 µM) of 0.619. For the same compound, the relative viability (COR-L 105; first compound 1 µM) was 0.696, the relative viability (NCI-H1755; first compound 0.01 µM) was 0.874 and the relative viability (NCI-H1755; first compound 0.03162 µM) was 0.947.
